Data from patent US8609413B2, “Neurons, astrocytes and oligodendrocytes differentiated from a mammalian pluripotent or neural stem cells exposed to a pyridine deriviative” (Research Development Foundation, priority 2007, dated 2013).
Entries after “also recorded” stand apart in the source; their conditions may differ.

Columns and labels:
H1 human ES cells = test: Neuronal differentiation of human ES cells, differentiation protocol 1; assay type: cell-based; details: vs DMSO
Procedure: Two different protocols were used to induce neuronal differentiation of human ES cells. In the first protocol, human ES cells were mechanically dissociated into small aggregates and plated on laminin/polyornithine coated six-well plates. Cells were cultured 2 weeks in human SR medium (DMEM F-12 supplemented with 15% knockout serum (Gibco), non-essential amino acids, penicillin and streptomycin), followed by 4 weeks in N2 medium. Compounds were added throughout these first 6 weeks. Subsequently, cells were mechanically dissociated and replated on polyornithine/laminin-coated 6 well plates. Throughout the text, this first differentiation protocol will be referred to as “differentiation protocol 1”. The second differentiation protocol was derived from previously described differentiation conditions (Nat et al., 2007). In the second differentiation protocol, undifferentiated human ES cells were mechanically dissociated into small aggregates and cultured in suspension on low-attachment six-well plates. For the first 4 days, they were cultured in neuronal induction medium (DMEM F-12, N2 supplement, penicillin and streptomycin), which was changed to simple neuronal proliferation medium (DMEM F-12, N2 supplement, 20 ng/ml bFGF, penicillin and streptomycin) for 2 additional days. […]
Immunostaining quantification. Immunostaining and nuclear staining quantifications were performed using the MetaXpress software (Molecular devices). Total neurite outgrowth was quantified using the neurite outgrowth analysis module, and total cell numbers were quantified with the count nuclei analysis module.
Phenazopyridine enhances neuronal differentiation of human ES cells. […] After 8 weeks of differentiation, the DMSO-treated cell population was highly heterogeneous as assessed by immunostaining for β3-tubulin, nestin, vimentin and GFAP. […] To quantify neuronal differentiation, the inventors chose to measure total neurite outgrowth and divided it by total cell number at different time points in three independent experiments (FIG. 7A).

H1 ES cells = test: Real Time PCR of neural and non-neural markers during differentiation protocol 2; assay type: cell-based, human; details: 3 μM
Procedure: Real Time PCR. Reactions were run on an ABI Prism 7900 HT detection system (Applied Biosystems). ALAS and GusB were used as housekeeping genes. […] Sequences of the primers are shown in supplementary table.
The kinetics of emergence of neural and non-neural markers in DMSO and 3 μM phenazopyridine-treated H1 ES cells were evaluated using real time PCR. […] Expression of non-neural markers was next evaluated. […] The inventors reasoned that the persistence of these markers could be temporary and therefore investigated their expression after four weeks of differentiation.

[1] = tested on: human ES cell-derived neural precursors; test: Two step differentiation: precursors replated without compound in neuronal differentiation medium; assay type: cell-based
Source text: To investigate the potential of neural precursors generated through phenazopyridine treatment, cells exposed to DMSO or phenazopyridine for four weeks as in Example 2 were replated at low density (5×10^3 cells/cm^2) on polyornithine/laminin coated support in neuronal differentiation medium, and investigated for their phenotype at different time points. Cells were then immunostained for neuronal markers and alkaline phosphatase (marking undifferentiated ES cells) after one week and four weeks of differentiation. Immunostaining was performed for nestin, β3-tubulin, Sox1, Pax6, vimentin, GFAP, CNPase, v-Glut1, GAD67, tyrosine hydroxylase and alkaline phosphatase. […] Two different protocols were used to induce neuronal differentiation of human ES cells. In the first protocol, human ES cells were mechanically dissociated into small aggregates and plated on laminin/polyornithine coated six-well plates. Cells were cultured 2 weeks in human SR medium (DMEM F-12 supplemented with 15% knockout serum (Gibco), non-essential amino acids, penicillin and streptomycin), followed by 4 weeks in N2 medium. Compounds were added throughout these first 6 weeks. Subsequently, cells were mechanically dissociated and replated on polyornithine/laminin-coated 6 well plates. Throughout the text, this first differentiation protocol will be referred to as “differentiation protocol 1”. The second differentiation protocol was derived from previously described differentiation conditions (Nat et al., 2007). In the second differentiation protocol, undifferentiated human ES cells were mechanically dissociated into small aggregates and cultured in suspension on low-attachment six-well plates. For the first 4 days, they were cultured in neuronal induction medium (DMEM F-12, N2 supplement, penicillin and streptomycin), which was changed to simple neuronal proliferation medium (DMEM F-12, N2 supplement, 20 ng/ml bFGF, penicillin and streptomycin) for 2 additional days. Subsequently, aggregates were plated on polyornithine/laminin-coated six-well plates and maintained in simple neuronal proliferation medium for 7 days. Cells were then mechanically dissociated and replated in N2 medium at a density of 2×10^4 cells per cm^2 for two additional weeks. Compounds were added throughout these first 4 weeks. Cells were then replated at a density of 5′000 cells per cm^2 in neuronal differentiation medium (Neurobasal medium, B-27 supplement, BDNF (10 ng/ml), penicillin and streptomycin). Throughout the text, this second differentiation protocol will be referred as to “differentiation protocol 2”. […] To investigate the potential of neuronal precursors generated through phenazopyridine treatment, the inventors devised a two step differentiation protocol. Cells were first treated with 3 μM phenazopyridine for 4 weeks and subsequently replated in the absence of phenazopyridine. For the second step, the inventors cultured cells at low density (5×10^3 cells/cm^2) on polyornithine/laminin-coated support in neuronal differentiation medium and investigated their phenotype at different time points in three independent experiments.

## Nc1ccc(/N=N/c2ccccc2)c(N)n1 [phenazopyridine]
H1 human ES cells; 3 μM for first 6 weeks, three independent experiments, p=0.045
  total neurite outgrowth divided by total cell number (efficiency of differentiation into mature neurons): always superior to DMSO-treated cells
H1 human ES cells; after 8 weeks of differentiation
  homogeneity of cell population by immunostaining (β3-tubulin, nestin, vimentin, GFAP): more homogeneous, most cells being positive for nestin, β3-tubulin, and vimentin, with occasional neuronal networks
H1 human ES cells; after 10 weeks
  formation of neuronal networks: further neuronal networks formed
H1 ES cells; 2 weeks
  expression of Oct-4 and brachyury: increased
  expression of forebrain (Mash1) and ventral hindbrain (Nkx2.2, HoxB4, Olig2) markers: also upregulated
  expression of α-fetoprotein (AFP): did not vary between both conditions
H1 ES cells; 2 weeks of differentiation, vs control
  expression of early (Pax6, nestin), intermediate (β3-tubulin, vimentin) and late (β3-tubulin, Map2) neuronal differentiation markers: upregulation
H1 ES cells; 4 weeks of differentiation
  expression of the same neural markers at 4 weeks: significant differences in the expression of the same markers at 4 weeks of differentiation were not observed
H1 ES cells; four weeks of differentiation
  downregulation of Oct4: > 1000 fold
  downregulation of brachyury: > 10 fold
  downregulation of α-fetoprotein: > 1000 fold
[1]; 3 μM for 4 weeks, then 4 weeks without compound
  phenotype 4 weeks after replating: formed networks of neurons, astrocytes and oligodendrocytes; also recorded: slow-growing cell clusters homogeneously positive for nestin, β3-tubulin, Sox1 and vimentin, together with more mature neurons, astrocytes and oligodendrocyte progenitors
[1]; 3 μM for 4 weeks, then one week without compound
  subtypes of neurons: mainly glutamatergic, GABAergic and rarely dopaminergic neurons; also recorded: glutamatergic, GABAergic and—more rarely—TH-positive neurons
[1]; 3 μM for 4 weeks, then replated without compound
  phenotype one week after replating: started to differentiate into neurons; also recorded: relatively homogenous monolayer of neural precursors and early neurons with short neurites
[1]; after replating, vs control
  alkaline phosphatase-positive (undifferentiated ES) cells: never detected alkaline phosphatase-positive cells
[1]; one week after replating
  astrocytes or oligodendrocyte precursors (GFAP, CNPase immunostaining): did not observe the presence of astrocytes or oligodendrocytes precursors
